This note sets out measurements from patent US10987349B2, “Antitumor agent and bromodomain inhibitor” (FUJIFILM Corporation, priority 2016, dated 2021).

The target in assay [1] is T1, BRD3 BD1 (Homo sapiens, UniProt Q15059).
T1 construct: BRD2 BD1, BRD3 BD1 and BRD4 BD1 (Cisbio); purchased Cisbio
Put plainly: Binding assay, BRD3 BD1 to acetylated histone H4 Peptide-Biotin (EPIgeneous Binding Domain Kit A). The conditions noted are these: test compound at 300 nmol/L; read-out: Binding inhibition percentage BRD3 BD1. On the procedure:
(§1) BRD2 BD1, BRD3 BD1 and BRD4 BD1 (Cisbio), [Lys(Ac)5/8/12/16]-Histone H4(1-25)-GSGSK (Biotin) (hereinafter referred to as “Peptide-Biotin,” AnaSpec), and EPIgeneous (registered trademark) Binding Domain Kit A (Cisbio) were used to carry out an assay. That is to say, per well, 4 μL of BRD2 BD1, BRD3 BD1 or BRD4 BD1, which was adjusted to 20 nmol/L with Diluent buffer; 4 μL of 25 nmol/L Peptide-Biotin; 2 μL of Dilution buffer (Cisbio) containing dimethyl sulfoxide (DMSO) or a test compound that was serially diluted with DMSO; 5 μL of 2.5 nmol/L Streptavidin-d2; and 5 μL of Anti-Gst-Eu+^3+ Cryptate Conjugate 50-fold diluted with Detection Buffer were added to a 384-well plate (Corning).
(§2) The obtained mixture was left at rest at room temperature for 20 hours, and thereafter, the fluoresence intensity at 665 nm and 620 nm was measured using Envision plate reader (Perkin Elmer), so that the inhibition percentage (%) of the test compound against the binding of a bromodomain in a bromodomain-containing protein to Peptide-Biotin was calculated. Binding inhibition percentage (%)=[1−{(fluorescence intensity at 665 nm of test compound−added well)/(fluorescence intensity at 620 nm of test compound−added well)}/{(fluorescence intensity at 665 nm of DMSO−added well)/(fluorescence intensity at 665 nm of DMSO−added well)}]×100
(§3) Moreover, using Graphpad prism 5 (GraphPad software), 50% inhibitory concentration [IC50 (nmol/L)] was calculated according to a non-linear regression analysis (log (inhibitor) vs. response—Variable slope (four parameters)).
(§4) Regarding other test compounds, each compound was diluted with DMSO to a final concentration of 300 nmol/L by the same method as that described above, and the binding inhibition percentage (%) of each test compound at 300 nmol/L against the binding of bromodomain in a bromodomain-containing protein to acetylated histone was calculated.

In assay [2] the target is T2, BRD2 BD1 (Homo sapiens, UniProt P25440).
T2 construct: BRD2 BD1, BRD3 BD1 and BRD4 BD1 (Cisbio); purchased Cisbio
T2 sequence (P25440 74-180 limits assumed): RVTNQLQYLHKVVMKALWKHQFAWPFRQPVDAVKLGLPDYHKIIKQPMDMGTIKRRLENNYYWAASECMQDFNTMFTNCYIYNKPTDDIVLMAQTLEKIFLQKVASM
Put plainly: Binding assay, BRD2 BD1 to acetylated histone H4 Peptide-Biotin (EPIgeneous Binding Domain Kit A). The conditions noted are these: test compound at 300 nmol/L; read-out: Binding inhibition percentage BRD2 BD1. Here is the method:
as §1, §2, §3, §4

In assay [3] the target is T3, BRD4 BD1 (Homo sapiens, UniProt O60885).
T3 construct: BRD2 BD1, BRD3 BD1 and BRD4 BD1 (Cisbio); purchased Cisbio
Put plainly: Binding assay, BRD4 BD1 to acetylated histone H4 Peptide-Biotin (EPIgeneous Binding Domain Kit A). The conditions noted are these: test compound at 300 nmol/L; read-out: Binding inhibition percentage BRD4 BD1. On the procedure:
as §1, §2, §3, §4

The target of assay [4] is T4, BRD2 BD2 (Homo sapiens, UniProt P25440).
T4 construct: BRD2 BD2, BRD3 BD2 and BRD4 BD2 (Cisbio); purchased Cisbio
T4 sequence (P25440 344-453 limits assumed): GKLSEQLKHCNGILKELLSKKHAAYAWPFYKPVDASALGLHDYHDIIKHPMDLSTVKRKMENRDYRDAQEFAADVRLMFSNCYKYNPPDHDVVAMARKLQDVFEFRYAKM
Kind of assay: Binding assay, BRD2 BD2 to acetylated histone H4 Peptide-Biotin (EPIgeneous Binding Domain Kit B). Particulars: test compound at 300 nmol/L; read-out: Binding inhibition percentage BRD2 BD2. Here is the method:
(§5) Moreover, BRD2 BD2, BRD3 BD2 and BRD4 BD2 (Cisbio), Peptide-Biotin (AnaSpec), and EPIgeneous (registered trademark) Binding Domain Kit B (Cisbio) were used to carry out an assay. That is, per well, 4 μL of BRD2 BD2, BRD3 BD2 or BRD4 BD2, which was adjusted to 20 nmol/L with Diluent buffer; 4 μL of 250 nmol/L Peptide-Biotin; 2 μL of Dilution buffer (Cisbio) containing DMSO or a test compound that was serially diluted with DMSO; 5 μL of 25 nmol/L Streptavidin-XL665; 5 μL of Anti-Gst-Eu+^3+ Cryptate Conjugate 50-fold diluted with Detection Buffer were added to a 384-well plate (Corning).
as §2, §3, §4

Assay [5] addresses T5, BRD4 BD2 (Homo sapiens, UniProt O60885).
T5 construct: BRD2 BD2, BRD3 BD2 and BRD4 BD2 (Cisbio); purchased Cisbio
Kind of assay: Binding assay, BRD4 BD2 to acetylated histone H4 Peptide-Biotin (EPIgeneous Binding Domain Kit B). The conditions noted are these: test compound at 300 nmol/L; read-out: Binding inhibition percentage BRD4 BD2. On the procedure:
as §5, §2, §3, §4

The target of assay [6] is T6, BRD3 BD2 (Homo sapiens, UniProt Q15059).
T6 construct: BRD2 BD2, BRD3 BD2 and BRD4 BD2 (Cisbio); purchased Cisbio
T6 sequence (Q15059 306-415 limits assumed): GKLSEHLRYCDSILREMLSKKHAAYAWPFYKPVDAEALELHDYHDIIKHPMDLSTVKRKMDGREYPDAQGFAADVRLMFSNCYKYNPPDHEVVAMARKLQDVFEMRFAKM
Kind of assay: Binding assay, BRD3 BD2 to acetylated histone H4 Peptide-Biotin (EPIgeneous Binding Domain Kit B). Particulars: test compound at 300 nmol/L; read-out: Binding inhibition percentage BRD3 BD2. Here is the method:
as §5, §2, §3, §4

T1 sequence (Q15059 34-140 limits assumed): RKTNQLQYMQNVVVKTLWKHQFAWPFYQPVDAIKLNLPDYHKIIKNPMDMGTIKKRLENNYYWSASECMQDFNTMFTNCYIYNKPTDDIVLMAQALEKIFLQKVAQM

With `Cc1ccc(N(C)C(=O)c2ccc3c(c2)c(C2CCN(C)CC2)cc(=O)n3C)cc1` [Example 235, N,1-dimethyl-N-(4-methylphenyl)-4-(1-methylpiperidin-4-yl)-2-oxo-1,2-dihydroquinoline-6-carboxamide], the inhibition at 0.3 µM is 94% in assay [1]; 94% in assay [2]; 95% in assay [3]; 82% in assay [4]; 87% in assay [5]; 89% in assay [6].

On to `CCn1c(=O)cc(C2CC2)c2cc(-n3c(=O)[nH]c(=O)n3-c3ccccc3)ccc21` [Example 248, 1-(4-cyclopropyl-1-ethyl-2-oxo-1,2-dihydroquinolin-6-yl)-2-phenyl-1,2,4-triazolidine-3,5-dione], for which the inhibition at 0.3 µM came to 95% in assay [1]; 93% in assay [2]; 95% in assay [3]; 90% in assay [4]; 90% in assay [5]; 91% in assay [6].

With `CCn1c(=O)cc(N2CCOCC2)c2cc(N(C)C(=O)c3ccc(Cl)cc3)ccc21` [Example 250, 4-chloro-N-(1-ethyl-4-(morpholin-4-yl)-2-oxo-1,2-dihydroquinolin-6-yl)-N-methylbenzamide], the inhibition at 0.3 µM in assay [1] was 91%; in assay [2] it was 74%; in assay [3], 91%; in assay [4], 88%; in assay [5] it was 88%; in assay [6] it was 92%.

In the case of `CCn1c(=O)cc(C2CC2)c2cc(-c3nc(C)nn3-c3ccccc3)ccc21` [Example 252, 4-cyclopropyl-1-ethyl-6-(3-methyl-1-phenyl-1H-1,2,4-triazol-5-yl)quinolin-2(1H)-one], the inhibition at 0.3 µM stood at 92% in assay [1]; 82% in assay [2]; 94% in assay [3]; 86% in assay [4]; 88% in assay [5]; 90% in assay [6].

On to `CCn1c(=O)cc(N2CCOCC2)c2cc(N3C(=O)CC[C@H]3c3ccccc3)ccc21` [Example 253, 1-ethyl-4-(morpholin-4-yl)-6-((5S)-2-oxo-5-phenylpyrrolidin-1-yl)quinolin-2(1H)-one], for which the inhibition at 0.3 µM was 90% in assay [1]; 70% in assay [2]; 92% in assay [3]; 87% in assay [4]; 85% in assay [5]; 89% in assay [6].

With `CCn1c(=O)cc(N2CCOCC2)c2cc(-n3ccnc3-c3ccccc3)ccc21` [Example 255, 1-ethyl-4-(morpholin-4-yl)-6-(2-phenyl-1H-imidazol-1-yl)quinolin-2(1H)-one], the inhibition at 0.3 µM in assay [1] was 92%; in assay [2], 79%; in assay [3] it was 94%; in assay [4], 89%; in assay [5], 87%; in assay [6], 90%.

Turning to `CCn1c(=O)cc(N2CCOCC2)c2cc(-n3cc(C)nc3-c3ccccc3)ccc21` [Example 256, 1-ethyl-6-(4-methyl-2-phenyl-1H-imidazol-1-yl)-4-(morpholin-4-yl)quinolin-2(1H)-one], the inhibition at 0.3 µM was 93% in assay [1]; 84% in assay [2]; 94% in assay [3]; 86% in assay [4]; 88% in assay [5]; 92% in assay [6].

For the compound `CCn1c(=O)cc(N2CCOCC2)c2cc(-c3nccn3-c3ccccc3)ccc21` [Example 257, 1-ethyl-4-(morpholin-4-yl)-6-(1-phenyl-1H-imidazol-2-yl)quinolin-2(1H)-one], the inhibition at 0.3 µM came out at 92% in assay [1]; 84% in assay [2]; 95% in assay [3]; 85% in assay [4]; 88% in assay [5]; 91% in assay [6].

For the compound `CCn1c(=O)cc(N2CCOCC2)c2cc(-c3ccccc3-c3ccccc3)ccc21` [Example 258, 6-(biphenyl-2-yl)-1-ethyl-4-(morpholin-4-yl)quinolin-2(1H)-one], the inhibition at 0.3 µM in assay [1] stood at 67%; in assay [2], 26%; in assay [3] it was 64%; in assay [4] it was 81%; in assay [5] it was 72%; in assay [6], 83%.

`CCn1c(=O)cc(N2CCOCC2)c2cc(-n3c(-c4ccccc4)cn(CCN4CCOCC4)c3=O)ccc21` [Example 260]: the inhibition at 0.3 µM was 93% in assay [1]; 88% in assay [2]; 94% in assay [3]; 87% in assay [4]; 88% in assay [5]; 91% in assay [6].

Take `CCn1c(=O)cc(N2CCOCC2)c2cc(-n3c(-c4ccccc4)cn(CCO)c3=O)ccc21` [Example 262, 1-ethyl-6-(3-(2-hydroxyethyl)-2-oxo-5-phenyl-2,3-dihydro-1H-imidazol-1-yl)-4-(morpholin-4-yl)quinolin-2(1H)-one]: the inhibition at 0.3 µM in assay [1] was determined as 94%; in assay [2], 87%; in assay [3], 94%; in assay [4], 89%; in assay [5], 88%; in assay [6], 92%.

Consider `CCCCn1cc(-c2ccccc2)n(-c2ccc3c(c2)c(N2CCOCC2)cc(=O)n3CC)c1=O` [Example 264, 6-(3-butyl-2-oxo-5-phenyl-2,3-dihydro-1H-imidazol-1-yl)-1-ethyl-4-(morpholin-4-yl)quinolin-2(1H)-one], for which the inhibition at 0.3 µM is 94% in assay [1]; 92% in assay [2]; 95% in assay [3]; 88% in assay [4]; 88% in assay [5]; 91% in assay [6].

As for `CCCn1cc(-c2ccccc2)n(-c2ccc3c(c2)c(N2CCOCC2)cc(=O)n3CC)c1=O` [Example 265, 1-ethyl-4-(morpholin-4-yl)-6-(2-oxo-5-phenyl-3-propyl-2,3-dihydro-1H-imidazol-1-yl)quinolin-2(1H)-one], the inhibition at 0.3 µM in assay [1] was 95%; in assay [2], 91%; in assay [3], 94%; in assay [4], 89%; in assay [5] it was 87%; in assay [6], 92%.

As for `CCn1cc(-c2ccccc2)n(-c2ccc3c(c2)c(N2CCOCC2)cc(=O)n3CC)c1=O` [Example 266, 1-ethyl-6-(3-ethyl-2-oxo-5-phenyl-2,3-dihydro-1H-imidazol-1-yl)-4-(morpholin-4-yl)quinolin-2(1H)-one], the inhibition at 0.3 µM in assay [1] was 94%; in assay [2], 91%; in assay [3], 93%; in assay [4], 90%; in assay [5], 88%; in assay [6], 91%.

Consider `CCn1c(=O)cc(C2CC2)c2cc(-n3c(-c4ccc(C(F)(F)F)cc4)cn(C)c3=O)ccc21` [Example 267, 4-cyclopropyl-1-ethyl-6-(3-methyl-2-oxo-5-(4-(trifluoromethyl)phenyl)-2,3-dihydro-1H-imidazol-1-yl)quinolin-2(1H)-one], for which the inhibition at 0.3 µM in assay [1] worked out at 53%; in assay [2], 32%; in assay [3] it was 68%; in assay [4], 87%; in assay [5], 87%; in assay [6], 90%.

The term inhibition denotes the drop in the measured response relative to a control, in per cent.
